Patent US6780855B2, “11β-HALOGEN-7α-SUBSTITUTED ESTRATRIENES, PROCESS FOR THE PRODUCTION OF PHARMACEUTICAL PREPARATIONS THAT CONTAIN THESE 11β-HALOGEN-7α-SUBSTITUTED ESTRATRIENES AS WELL AS THEIR USE FOR THE PRODUCTION OF PHARMACEUTICAL AGENTS” (Schering Aktiengesellschaft, priority 1997, dated 2004)

Experiments:
human estrogen receptor = test: Partial estrogenic action: transactivation assay, HeLa cells with HEGO and reporter gene rPR-TK-CAT; type: cell-based; conditions: concentration of 1 μm, negative value means suppression of reporter gene activity below controls
Description: The partial estrogenic action of compounds according to the invention was determined by transactivation assays. HeLa cells were transfixed with human estrogen receptor expression vector (HEGO) and a reporter gene rPR-TK-CAT. This reporter gene contains the “Estrogen Responsive Element” of the rabbit progesterone receptor gene (+698/+729 region) before a TK-CAT gene (Savouret, J. F.; Bailly, A.; Misrahi, M.; Rauch, C.; Redeuilh, G.; Chauchereau, A.; Milgrom, E., Characterization of the Hormone Responsive Element Involved in the Regulation of the Progesterone Receptor Gene. EMBO J. 10, 1875-1883 (1991).
The estrogenic action was determined at a concentration of 1 μm.

HeLa = test: Transactivation assay for antiestrogenic action in HeLa cells; type: cell-based; conditions: Homo sapiens
Description: (§1) The antiestrogenic action of the compounds according to the invention was determined in transactivation assays [Demirpence, E.; Duchesne, M.-J.; Badia, E.; Gagne, D. and Pons, M.: MVLN Cells: a Bioluminescent MCF-7-Derived cell Line to Study the Modulation of Estrogenic Activity; J. Steroid. Molec. Biol. Vol. 46, No. 3, 355-364 (1993) and Berry, M.; Metzger, D.; Chambon, P.: Role of the Two Activating Domains of the Estrogen Receptor in the Cell-type and Promoter-context Dependent Agonistic Activity of the Anti-estrogen 4-Hydroxytamoxifen; The EMBO Journal Vol. 9, 2811-2818 (1990)].
(§2) The IC50 values for the new compounds are in the nanomolar range. In the MVLN cell line, the following IC50 values are produced for the compound of Examples 3 and 8 (execution of test according to the above-indicated bibliographic references): […]

MVLN cells = test: Transactivation assay for antiestrogenic action in MVLN cells (reporter gene Vit-TK-LUC); type: cell-based; conditions: Homo sapiens; MVLN cell line, in the presence of 0.1 nM of estradiol
Description: as §1
The MVLN cells are transfixed in a stable manner with reporter gene Vit-TK-LUC. The antiestrogenic active strength was determined in the presence of 0.1 nM of estradiol.
as §2

uterus = test: Uterus growth test in infantile rats (antiestrogenic action), p.o.; type: in vivo; conditions: 0.3 mg p.o. once daily over 3 days with 0.5 μg estradiol benzoate s.c., inhibition compared to EB-control
Description: The uterus growth test in infantile rats, p.o. (test on antiestrogenic action in vivo) also confirms the antiestrogenic action of the compounds according to the invention. The test was performed as described below:
Uterus Growth Test in Infantile Rats (Antiestrogenic Action)
In rodents, the uterus reacts to the application of estrogens with an increase in weight (both proliferation and water retention). This growth can be inhibited in a dose-dependent manner by simultaneous administration of compounds that have an antiestrogenic action.
Infantile female rats weighing 35-45 g at the beginning of the test, 5-6 animals per dose.
Formulation and Administration of the Substances: […]
For the p.o. administration, the substances are dissolved in 1 part ethanol (E) and made up with 9 parts peanut oil (EÖ).
The young rats just dropped by the mothers are delivered for acclimation one day before the beginning of treatment and immediately supplied with food—right in the cage. […] The moist weight (less contents) is determined from the prepared uteri. […]
The average values are determined with standard deviation (X+SD) and the significance of the differences in the control group (EB) in the Dunnett Test (p<0.05) for each group from the relative organ weights (mg/100 g of body weight). […] The relative actions of the test substances are determined by co-variance analysis and regression analysis.

melting point [°C]	SMILES	Activation of the rPR-TK Promoter [% estradiol] (human estrogen receptor)	IC50 (HeLa) [nM]	IC50 (MVLN cells) [nM]	Antiuterotrophic action at 0.3 mg [% inhibition] (uterus)
	CN(CCCCC[C@@H]1Cc2cc(O)ccc2[C@@H]2[C@@H]1[C@@H]1CC[C@H](O)[C@@]1(C)C[C@@H]2F)CCCC(F)(F)C(F)(F)F [Example 8, 11β-Fluoro-7α-{5-[methyl-(4,4,5,5,5-pentafluoro-pentyl)-amino]-pentyl}-estra-1,3,5(10)-triene-3,17β-diol]	48	8	37	0
	CN(CCCCCCC(F)(F)C(F)(F)F)CCCCC[C@@H]1Cc2cc(O)ccc2[C@@H]2[C@@H]1[C@@H]1CC[C@H](O)[C@@]1(C)C[C@@H]2F [Example 12, 11β-Fluoro-7α-{5-[methyl-(7,7,8,8,8-pentafluor-octyl)-amino]-pentyl}-estra-1,3,5(10)-triene-3,17β-diol]	34			
110	CN(CCCCCCCC(F)(F)C(F)(F)F)CCCCC[C@@H]1Cc2cc(O)ccc2[C@@H]2[C@@H]1[C@@H]1CC[C@H](O)[C@@]1(C)C[C@@H]2F				
	CN(CCCCC[C@@H]1Cc2cc(O)ccc2[C@@H]2[C@@H]1[C@@H]1CC[C@H](O)[C@@]1(C)C[C@@H]2F)CCCOCc1ccccc1 [Example 22, 7α-{5-[(3-Benzyloxy-propyl)-methyl-amino]-pentyl}-11β-fluor-estra-1,3,5(10)-triene-3,17β-diol]	53			
	CN(CCCCCCCCC(F)(F)C(F)(F)F)CCCCC[C@@H]1Cc2cc(O)ccc2[C@@H]2[C@@H]1[C@@H]1CC[C@H](O)[C@@]1(C)C[C@@H]2F [Example 3, 11β-Fluoro-7α-{5-[methyl-(9,9,10,10,10-pentafluoro-decyl)-amino]-pentyl}-estra-1,3,5(10)-triene-3,17β-diol]	−25	0.2	6.3	68
	CN(CC=C(F)C(F)(F)C(F)(F)C(F)(F)F)CCCCC[C@@H]1Cc2cc(O)ccc2[C@@H]2[C@@H]1[C@@H]1CC[C@H](O)[C@@]1(C)C[C@@H]2F [Example 18, 11β-Fluoro-7α-{5-[methyl-(3,4,4,5,5,6,6,6-octafluoro-hex-2-enyl)-amino]-pentyl}-estra-1,3,5(10)-triene-3,17β-diol]	29			
